A short description of data set [1]: Cytotoxicity to mammalian cells, KB. The following applies: human, KB cells (human epidermoid carcinoma). The format is cell-based. As to the method: (§1) Cytotoxicity tests of the invented compounds against African green monkey kidney fibroblast (Vero cells), Human epidermoid carcinoma (KB) cells, Human breast cancer (BC) cells were performed according to the protocol described by Skehan et al (1990). These compounds have selectivity against malaria parasites with no or less effect on mammalian cell lines.

The subject of the next data set is E. coli. Briefly: Antibacterial activity, bacterial growth inhibition, E. coli. The data set is classed as cell-based. Conditions: Escherichia coli, 20 hours incubation, 600 nm. The method, then: (§2) The IC50-values was determined from the sigmoidal curve obtained by plotting the percentages of bacterial growth against drug concentrations. These compounds have selectivity against malaria parasites with no or less effect on bacteria. The antibacterial activities to S. aureus, and E. coli are as summerized in Table 4.

The target in data set [2] is PfDHFR C59R + S108N + I164L (Plasmodium falciparum, UniProt A7UD81, C59R/I164L/S108N). Briefly: biochemical.
The target in a further data set is T1, PfDHFR C59R + S108N (Plasmodium falciparum, UniProt A7UD81, C59R/S108N).
T1 construct: made in house; host or cells: E. coli BL21 (DE3)pLysS
Briefly: PfDHFR enzyme inhibition constants (Ki), double mutant C59R + S108N. The data set is classed as biochemical.

A further data set concerns the target T2, PfDHFR S108N (Plasmodium falciparum, UniProt A7UD81, S108N).
T2 construct: made in house; host or cells: E. coli BL21 (DE3)pLysS
Kind of data set: PfDHFR enzyme inhibition constants (Ki), single mutant S108N. The format is biochemical.

Data set [3] has as its target PfDHFR N51I + C59R + S108N (Plasmodium falciparum, UniProt A7UD81, C59R/N51I/S108N). Kind of data set: biochemical.
The target of data set [4] is T3, PfDHFR N51I + C59R + S108N + I164L (Plasmodium falciparum, UniProt A7UD81, C59R/I164L/N51I/S108N).
T3 construct: made in house; host or cells: E. coli BL21 (DE3)pLysS
Briefly: PfDHFR enzyme inhibition constants (Ki), quadruple mutant N51I + C59R + S108N + I164L. The data set is classed as biochemical.

Data set [5] in a line: Cytotoxicity to mammalian cells, BC. The following applies: human, BC cells (human breast cancer). The format is cell-based. The method, then: as §1
For data set [6], the system named is Plasmodium falciparum TM4/8.2 (wild type). Briefly: In vitro antimalarial activity, [3H]-hypoxanthine incorporation, TM4/8.2. The data set is classed as cell-based. Conditions: P. falciparum TM4/8.2, wild type. As to the method: P. falciparum strains were used in this study. P. falciparum strains were maintained continuously in human erythrocytes at 37° C. under 3% CO2 in RPMI 1640 culture media supplemented with 25 mM HEPES, pH 7.4, 0.2% NaHCO3, 40 μg/mL gentamicin and 10% human serum.
In vitro antimalarial activity was determined by using [^3H]-hypoxanthine incorporation method. The drugs were initially dissolved in DMSO and diluted with the culture media. Aliquots (25 μL) of the drug of different concentrations were dispensed in 96-well plates and 200 μL of 1.5% cell suspension of parasitized erythrocytes containing 1-2% parasitemia were added. […] The mixtures were incubated in a 3% CO2 incubator at 37° C. After 24 h of incubation, 25 μL (0.25 μCi) of [^3H]-hypoxanthine were added to each well. The parasite cultures were further incubated under the same condition for 18-24 h. DNA of parasites was harvested onto glass filter paper. The filters were air-dried and 20 μL liquid scintillation fluid was added. The radioactivity on the filters was then measured using a microplate scintillation counter. […] Examples of the invented compounds in this series with active antimalarial activity against wild type and in particular against parasites carrying single, double, triple, and quadruple mutant enzymes are as summarized in Table 2.

The test system of another data set is Staphylococcus aureus. Briefly: Antibacterial activity, bacterial growth inhibition, S. aureus. The format is cell-based. The following applies: 20 hours incubation, 600 nm. As to the method: as §2
Data set [7] concerns the target dihydrofolate reductase of Plasmodium falciparum, wild type (Plasmodium falciparum, UniProt A7UD81). Kind of data set: PfDHFR enzyme inhibition constants (Ki), wild type. The following applies: 25° C., 340 nm. The format is biochemical.
Data set [8] in a line: Cytotoxicity to mammalian cells, Vero. The data set is classed as cell-based. Conditions: African green monkey, Vero cells (African green monkey kidney epithelial cells).

T2 sequence (A7UD81 whole entry S108N): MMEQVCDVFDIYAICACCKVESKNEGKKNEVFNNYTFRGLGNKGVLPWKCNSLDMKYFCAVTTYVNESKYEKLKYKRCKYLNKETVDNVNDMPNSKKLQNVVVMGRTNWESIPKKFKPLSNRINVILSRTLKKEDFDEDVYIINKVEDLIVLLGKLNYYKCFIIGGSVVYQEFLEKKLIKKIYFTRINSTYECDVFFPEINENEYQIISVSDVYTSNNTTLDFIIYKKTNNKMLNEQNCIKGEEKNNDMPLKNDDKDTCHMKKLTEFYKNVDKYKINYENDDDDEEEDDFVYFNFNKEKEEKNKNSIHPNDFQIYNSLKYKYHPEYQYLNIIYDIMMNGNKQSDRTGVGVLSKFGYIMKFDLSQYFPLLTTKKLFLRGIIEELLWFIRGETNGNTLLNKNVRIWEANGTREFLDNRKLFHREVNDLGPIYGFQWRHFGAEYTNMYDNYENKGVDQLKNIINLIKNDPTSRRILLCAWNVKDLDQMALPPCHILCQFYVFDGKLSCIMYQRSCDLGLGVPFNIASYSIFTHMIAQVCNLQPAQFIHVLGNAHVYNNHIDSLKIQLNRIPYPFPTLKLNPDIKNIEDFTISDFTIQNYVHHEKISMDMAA
T3 sequence (A7UD81 whole entry N51I/C59R/S108N/I164L): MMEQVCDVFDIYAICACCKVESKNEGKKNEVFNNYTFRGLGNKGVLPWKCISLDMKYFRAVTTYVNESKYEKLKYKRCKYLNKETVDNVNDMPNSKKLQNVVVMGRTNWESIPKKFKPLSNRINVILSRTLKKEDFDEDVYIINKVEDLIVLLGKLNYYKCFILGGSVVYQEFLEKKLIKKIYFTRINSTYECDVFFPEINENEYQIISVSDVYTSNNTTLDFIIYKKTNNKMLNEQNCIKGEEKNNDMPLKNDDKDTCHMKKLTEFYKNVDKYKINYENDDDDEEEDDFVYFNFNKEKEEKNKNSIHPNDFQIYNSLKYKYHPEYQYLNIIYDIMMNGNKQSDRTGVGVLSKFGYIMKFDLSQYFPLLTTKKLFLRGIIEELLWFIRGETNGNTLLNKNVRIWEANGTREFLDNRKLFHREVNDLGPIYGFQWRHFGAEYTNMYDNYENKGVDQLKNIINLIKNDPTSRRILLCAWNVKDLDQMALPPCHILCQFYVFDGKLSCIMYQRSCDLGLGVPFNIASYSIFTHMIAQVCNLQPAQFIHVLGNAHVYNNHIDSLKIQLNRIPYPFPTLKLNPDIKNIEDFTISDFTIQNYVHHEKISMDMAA
Chain of PfDHFR C59R + S108N + I164L (A7UD81 whole entry C59R/S108N/I164L): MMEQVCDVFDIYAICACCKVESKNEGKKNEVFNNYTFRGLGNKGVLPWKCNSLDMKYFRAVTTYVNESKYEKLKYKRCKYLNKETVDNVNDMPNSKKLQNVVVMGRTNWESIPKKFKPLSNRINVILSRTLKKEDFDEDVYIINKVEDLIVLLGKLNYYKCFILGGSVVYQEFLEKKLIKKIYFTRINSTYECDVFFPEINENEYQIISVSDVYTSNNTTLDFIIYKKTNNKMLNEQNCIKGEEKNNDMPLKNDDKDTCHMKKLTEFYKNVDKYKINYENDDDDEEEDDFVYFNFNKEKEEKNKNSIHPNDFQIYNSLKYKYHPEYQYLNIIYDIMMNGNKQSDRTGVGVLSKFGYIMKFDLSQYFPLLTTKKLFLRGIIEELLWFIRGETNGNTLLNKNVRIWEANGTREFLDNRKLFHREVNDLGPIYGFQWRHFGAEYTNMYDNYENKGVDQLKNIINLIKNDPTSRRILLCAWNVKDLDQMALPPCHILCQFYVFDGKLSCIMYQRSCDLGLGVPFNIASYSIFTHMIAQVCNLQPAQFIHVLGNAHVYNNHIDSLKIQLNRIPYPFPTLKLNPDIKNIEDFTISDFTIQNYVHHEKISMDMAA
T1 sequence (A7UD81 whole entry C59R/S108N): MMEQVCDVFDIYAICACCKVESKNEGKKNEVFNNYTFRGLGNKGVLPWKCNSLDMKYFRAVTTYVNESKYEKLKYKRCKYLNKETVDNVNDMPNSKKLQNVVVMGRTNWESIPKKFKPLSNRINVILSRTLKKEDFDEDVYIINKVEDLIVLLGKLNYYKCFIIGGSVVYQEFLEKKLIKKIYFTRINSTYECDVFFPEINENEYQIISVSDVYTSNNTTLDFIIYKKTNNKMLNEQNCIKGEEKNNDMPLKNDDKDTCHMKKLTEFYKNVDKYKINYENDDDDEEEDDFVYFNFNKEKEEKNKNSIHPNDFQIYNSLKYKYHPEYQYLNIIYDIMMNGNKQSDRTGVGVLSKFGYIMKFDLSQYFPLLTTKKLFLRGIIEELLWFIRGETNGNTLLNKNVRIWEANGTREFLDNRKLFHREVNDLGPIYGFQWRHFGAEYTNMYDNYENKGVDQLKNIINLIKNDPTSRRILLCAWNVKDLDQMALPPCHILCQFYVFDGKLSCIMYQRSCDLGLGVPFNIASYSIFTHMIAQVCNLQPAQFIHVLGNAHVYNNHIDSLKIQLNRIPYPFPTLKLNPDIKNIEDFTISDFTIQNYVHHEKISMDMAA
Chain of dihydrofolate reductase of Plasmodium falciparum, wild type (A7UD81 entry or part of it): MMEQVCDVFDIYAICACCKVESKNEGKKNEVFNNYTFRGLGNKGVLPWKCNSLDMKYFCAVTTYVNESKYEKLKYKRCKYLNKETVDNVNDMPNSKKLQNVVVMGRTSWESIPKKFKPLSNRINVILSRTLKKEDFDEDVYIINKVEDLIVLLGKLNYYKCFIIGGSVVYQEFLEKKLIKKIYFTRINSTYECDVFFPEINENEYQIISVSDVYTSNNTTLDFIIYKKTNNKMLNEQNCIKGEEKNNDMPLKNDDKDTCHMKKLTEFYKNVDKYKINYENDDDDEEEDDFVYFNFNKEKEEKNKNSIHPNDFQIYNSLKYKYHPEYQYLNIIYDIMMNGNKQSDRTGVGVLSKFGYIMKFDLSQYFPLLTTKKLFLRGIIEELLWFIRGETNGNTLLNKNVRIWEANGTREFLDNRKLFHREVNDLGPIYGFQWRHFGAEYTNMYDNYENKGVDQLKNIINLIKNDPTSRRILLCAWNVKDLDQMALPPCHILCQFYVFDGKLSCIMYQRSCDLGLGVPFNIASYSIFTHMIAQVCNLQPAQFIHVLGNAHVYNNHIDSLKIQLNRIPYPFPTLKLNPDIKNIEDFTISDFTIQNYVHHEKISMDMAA
Chain of PfDHFR N51I + C59R + S108N (A7UD81 whole entry N51I/C59R/S108N): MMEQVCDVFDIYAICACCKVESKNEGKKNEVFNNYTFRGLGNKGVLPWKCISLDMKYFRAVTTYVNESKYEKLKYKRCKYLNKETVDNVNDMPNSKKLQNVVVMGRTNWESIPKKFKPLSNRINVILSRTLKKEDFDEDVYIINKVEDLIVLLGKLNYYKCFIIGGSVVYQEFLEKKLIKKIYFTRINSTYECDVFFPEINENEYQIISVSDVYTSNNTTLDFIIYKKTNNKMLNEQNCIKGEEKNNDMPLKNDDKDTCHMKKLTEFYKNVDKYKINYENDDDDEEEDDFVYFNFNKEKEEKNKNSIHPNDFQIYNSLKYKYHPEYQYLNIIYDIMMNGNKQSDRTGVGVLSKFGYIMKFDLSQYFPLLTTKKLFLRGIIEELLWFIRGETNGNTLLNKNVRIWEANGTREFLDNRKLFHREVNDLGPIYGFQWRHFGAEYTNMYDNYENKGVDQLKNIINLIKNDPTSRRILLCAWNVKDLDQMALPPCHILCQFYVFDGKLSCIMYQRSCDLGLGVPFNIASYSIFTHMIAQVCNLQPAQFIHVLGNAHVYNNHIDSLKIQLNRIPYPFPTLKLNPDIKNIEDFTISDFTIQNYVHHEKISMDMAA

Consider `CCCCCCc1nc(N)nc(N)c1-c1ccccc1` [Example 1, 2,4-diamino-6-(n-hexyl)-5-phenylpyrimidine], for which the IC50 – broadly, the concentration that gives 50% inhibition – in data set [1] was 113 µM; with E. coli, more than 10 µM; in [5] it was 268 µM; in [6] it was 60 ± 20 nM; in the data set on Staphylococcus aureus it was more than 10 µM; in [8], 55 µM. Also, the Ki (usually a measure of affinity in units of concentration, obtained from inhibition or displacement) in data set [2] is 0.7 ± 0.2 nM; at PfDHFR C59R + S108N, 0.7 ± 0.3 nM; at PfDHFR S108N, 1.2 ± 0.3 nM; in data set [3], 0.4 ± 0.02 nM; in data set [4] it was 1.4 ± 0.5 nM; in data set [7], 0.3 ± 0.1 nM.
Consider `Nc1nc(N)c(-c2ccccc2)c(CCCc2ccccc2)n1` [Example 2, 2,4-diamino-5-phenyl-6-(3-phenylpropyl)pyrimidine], for which the IC50 is 150 µM in data set [1]; more than 50 µM in the data set with E. coli; 250 µM in data set [5]; 210 ± 60 nM in data set [6]; more than 50 µM in the data set on Staphylococcus aureus; more than 50 µM in [8]. Besides, the inhibitory constant (Ki) was found to be 1.9 ± 0.1 nM in data set [2]; 2.4 ± 0.1 nM at PfDHFR C59R + S108N; 0.9 ± 0.2 nM on PfDHFR S108N; 1.1 ± 0.1 nM in [3]; 4.7 ± 0.9 nM in [4]; 0.5 nM in [7].
With `COC(=O)CCCc1nc(N)nc(N)c1-c1ccccc1` [Example 3, 2,4-diamino-6-(3-methoxycarbonylpropyl)-5-phenylpyrimidine], the IC50 in data set [1] was 71 µM; in the data set on E. coli it was more than 50 µM; in [5], 500 µM; in data set [6] it was 390 ± 60 nM; with Staphylococcus aureus it was more than 50 µM; in data set [8], 20 µM. The Ki is 15 ± 3 nM in data set [2]; 5.5 ± 0.5 nM on PfDHFR C59R + S108N; 1.8 ± 0.2 nM at PfDHFR S108N; 3.3 ± 0.6 nM in [3]; 24 ± 2 nM in data set [4]; 0.6 nM in data set [7].
`Nc1nc(N)c(-c2cccc(Cl)c2)c(CCCc2ccccc2)n1` [Example 4, 2,4-diamino-5-(3-chlorophenyl)-6-(3-phenylpropyl)pyrimidine]: the IC50 in data set [1] is 1.6 µM; with E. coli, more than 50 µM; in data set [5], 1.6 µM; in [6], 670 ± 60 nM; with Staphylococcus aureus, more than 50 µM; in [8], 2.1 µM. Also, the inhibitory constant (Ki) in data set [2] stood at 2.2 ± 0.3 nM; on PfDHFR C59R + S108N it was 4.2 ± 0.2 nM; at PfDHFR S108N, 3 ± 0.6 nM; in data set [3], 2 ± 0.2 nM; in [4] it was 2 ± 0.8 nM; in [7] it was 1.2 ± 0.2 nM.
With `COc1ccc(CCCc2nc(N)nc(N)c2-c2cccc(Cl)c2)cc1` [Example 5, 2,4-diamino-5-(3-chlorophenyl)-6-[3-(4-methoxyphenyl)propyl]pyrimidine], the concentration for half-maximal inhibition (IC50) in data set [1] is 15 µM; in the data set with E. coli, more than 50 µM; in [5], 3 µM; in data set [6], 410 ± 50 nM; with Staphylococcus aureus, 38 µM; in [8] it was 3 µM. Further, the Ki in [2] turned out to be 2.9 ± 0.3 nM; at PfDHFR C59R + S108N, 6 ± 0.6 nM; on PfDHFR S108N, 4 ± 0.2 nM; in data set [3], 1.3 ± 0.1 nM; in [4] it was 2 ± 0.4 nM; in [7], 2.2 ± 0.6 nM.
With `COC(=O)CCCc1nc(N)nc(N)c1-c1cccc(Cl)c1` [Example 6, 2,4-diamino-5-(3-chlorophenyl)-6-(3-methoxycarbonylpropyl)pyrimidine], the IC50 in data set [1] is 9.3 µM; with E. coli it was more than 50 µM; in data set [5] it was 22.8 µM; in data set [6], 790 ± 100 nM; with Staphylococcus aureus, more than 50 µM; in data set [8], 20 µM. The inhibitory constant (Ki) was found to be 1.8 ± 0.4 nM in [2]; 2.8 ± 0.2 nM at PfDHFR C59R + S108N; 1.7 ± 0.1 nM at PfDHFR S108N; 0.8 ± 0.2 nM in data set [3]; 2.7 ± 1.2 nM in data set [4]; 0.5 nM in data set [7].
As to `Nc1nc(N)c(-c2cccc(Cl)c2)c(CCOCCCOc2ccccc2)n1` [Example 7, 2,4-diamino-5-(3-chlorophenyl)-6-[2-(3-phenoxypropyloxy)ethyl]pyrimidine], the IC50 in [1] was 6.4 µM; with E. coli it was more than 50 µM; in [5] it was 4.9 µM; in [6], 350 ± 80 nM; in the data set on Staphylococcus aureus it was more than 50 µM; in data set [8], 15 µM. The inhibition constant (Ki) in data set [2] is 1.3 ± 0.4 nM; on PfDHFR C59R + S108N it was 1.9 ± 0.4 nM; at PfDHFR S108N it was 1.8 ± 0.3 nM; in data set [3], 0.7 ± 0.1 nM; in data set [4], 1.7 ± 0.2 nM; in data set [7] it was 0.4 ± 0.2 nM.
Regarding `CCc1nc(N)nc(N)c1-c1ccc(Cl)cc1` [Pyr, pyrimethamine, reference compound], the values for the IC50 in [1], in [5] and in data set [6] were 109 µM, 40 µM and 80 ± 10 nM, respectively.
`COc1cc(Cc2cnc(N)nc2N)cc(OC)c1OC` [Trimethoprim, reference compound]: the results for the IC50 with E. coli and in the data set on Staphylococcus aureus were 2.3 µM and 6 µM, respectively.

For the origin of these results see patent US7371758B2, “Antimalarial pyrimidine derivatives and methods of making and using them” (National Science & Technology Development Agency, priority 2003, dated 2008).
